# Results from DBAASP.
# Where “and” joins values, the source holds several entries; their conditions need not be identical. Identical values can stand only once.
# Key:
# Assay in all cases: ≥ marks a high value that may be exact or a test limit, other limits are often not marked, values filed in µg/mL are converted to µM
# [1] = test system: Pseudomonas aeruginosa ATCC 27853
# [2] = test system: Pseudomonas aeruginosa PAO1
# [3] = test system: Staphylococcus aureus ATCC 43300
# [4] = test system: Staphylococcus aureus ATCC 25923
# [5] = test system: Pseudomonas aeruginosa ATCC 9027
# [6] = test system: Staphylococcus aureus ATCC 6538
# Bacillus subtilis = test system: Bacillus subtilis
# [7] = test system: Candida albicans ATCC 2002
# [8] = test system: Escherichia coli ATCC 25922
# [9] = test system: Candida albicans ATCC 90028
# [10] = test system: Staphylococcus aureus ATCC 29213
# [11] = test system: Bacillus subtilis ATCC 6633
# Escherichia coli = test system: Escherichia coli
smiles,measurement,setting,value
CC[C@H](C)[C@H](NC(=O)[C@H](CCCCN)NC(=O)[C@H](Cc1cnc[nH]1)NC(=O)[C@H](CC(N)=O)NC(=O)[C@H](Cc1c[nH]c2ccccc12)NC(=O)CNC(=O)[C@H](C)NC(=O)[C@H](CO)NC(=O)[C@@H](NC(=O)[C@@H](NC(=O)[C@@H](N)CS)C(C)C)[C@@H](C)CC)C(=O)N[C@@H](CCCN=C(N)N)C(=O)N[C@H]1CSSC[C@@H](C(=O)O)NC(=O)[C@H](CC(N)=O)NC(=O)CNC(=O)[C@H]([C@@H](C)O)NC(=O)[C@H](CC(C)C)NC(=O)[C@H](CCCCN)NC1=O [CVISAGWNHKIRCKLTGNC],MIC,[1],11.9 µM
same,MIC,[2],11.9 µM
same,MIC,[3],23.8 µM
same,MIC,[4],23.8 µM
CC(C)C[C@H](NC(=O)[C@H](C)NC(=O)[C@H](CCCCN)NC(=O)[C@H](CCCCN)NC(=O)[C@H](CC(C)C)NC(=O)[C@H](Cc1ccccc1)NC(=O)[C@H](CCCCN)NC(=O)[C@H](C)NC(=O)[C@H](CC(C)C)NC(=O)[C@H](Cc1ccccc1)NC(=O)[C@H](CCCCN)NC(=O)[C@H](C)NC(=O)[C@@H](N)Cc1ccccc1)C(N)=O [FAKFLAKFLKKAL],MIC,[5],65.6 µM
same,MIC,[6],3.28 µM
CC[C@H](C)[C@H](NC(=O)[C@H](CC(C)C)NC(=O)[C@H](CCCCN)NC(=O)[C@H](CCCCN)NC(=O)[C@H](C)NC(=O)[C@H](CC(C)C)NC(=O)[C@H](CCCCN)NC(=O)[C@H](CCCCN)NC(=O)[C@H](CC(C)C)NC(=O)[C@H](CCCCN)NC(=O)[C@H](CCCCN)NC(=O)[C@H](C)NC(=O)[C@H](CC(C)C)NC(=O)[C@H](CCCCN)NC(=O)[C@H](CCCCN)NC(=O)[C@H](C)NC(=O)[C@@H](N)Cc1ccccc1)C(=O)NCC(=O)N[C@@H](C)C(=O)N[C@H](C(=O)N[C@@H](CC(C)C)C(=O)N[C@@H](CCCCN)C(=O)N[C@H](C(=O)O)C(C)C)C(C)C [FAKKLAKKLKKLAKKLIGAVLKV],MIC,[5],> 78.8 µM
same,MIC,[6],39.4 µM
CC(C)C[C@H](NC(=O)[C@H](C)NC(=O)[C@H](CCCCN)NC(=O)[C@H](CCCCN)NC(=O)[C@H](CC(C)C)NC(=O)[C@H](C)NC(=O)[C@H](CCCCN)NC(=O)[C@H](C)NC(=O)[C@H](CC(C)C)NC(=O)[C@H](CC(C)C)NC(=O)[C@H](CCCCN)NC(=O)[C@H](C)NC(=O)[C@@H](N)Cc1ccccc1)C(N)=O [FAKLLAKALKKAL],MIC,[5],7.07 µM
same,MIC,[6],3.53 µM
CC(C)C[C@H](NC(=O)[C@H](CCCCN)NC(=O)[C@H](CCCCN)NC(=O)[C@H](C)NC(=O)[C@H](CC(C)C)NC(=O)[C@H](CCCCN)NC(=O)[C@H](C)NC(=O)[C@H](Cc1c[nH]c2ccccc12)NC(=O)[C@H](CC(C)C)NC(=O)[C@H](CCCCN)NC(=O)[C@H](C)NC(=O)[C@@H](N)Cc1ccccc1)C(N)=O [FAKLWAKLAKKL],MIC,[5],35.3 µM
same,MIC,[6],70.6 µM
CC[C@H](C)[C@H](NC(=O)CNC(=O)[C@H](C)NC(=O)[C@H](C)NC(=O)[C@@H](NC(=O)[C@H](CCCCN)NC(=O)[C@H](CC(C)C)NC(=O)[C@@H](NC(=O)[C@@H]1CCCN1C(=O)CNC(=O)[C@@H](NC(=O)[C@@H](N)Cc1ccccc1)C(C)C)C(C)C)[C@@H](C)CC)C(=O)N[C@@H](CC(C)C)C(=O)N1CCC[C@H]1C(=O)N[C@H](C(=O)N[C@@H](C)C(=O)N[C@H](C(=O)N[C@H]1CSSC[C@@H](C(=O)O)NC(=O)[C@H](CCCCN)NC(=O)[C@H](CCCCN)NC(=O)[C@H](Cc2ccc(O)cc2)NC(=O)[C@H]([C@@H](C)CC)NC(=O)[C@H](CCCCN)NC1=O)[C@@H](C)CC)[C@@H](C)O [FVGPVLKIAAGILPTAICKIYKKC],MIC,[3],3.68 µM
same,MIC,[4],0.459 µM
same,MIC,Bacillus subtilis,0.919 µM
same,MIC,[7],0.919 µM
CC(C)C[C@H](NC(=O)CN)C(=O)N[C@@H](CC(C)C)C(=O)N[C@@H](CC(=O)O)C(=O)N[C@@H](CC(C)C)C(=O)N[C@@H](CC(C)C)C(=O)N[C@@H](CCCCN)C(=O)N[C@@H](CC(C)C)C(=O)N[C@@H](CC(C)C)C(=O)N[C@@H](CC(C)C)C(=O)N[C@@H](CCCCN)C(=O)N[C@@H](C)C(=O)N[C@@H](C)C(=O)NCC(=O)O [GLLDLLKLLLKAAG],MIC,[2],66 µM
same,MIC,[4],10 µM
same,MIC,[8],35 µM
CC[C@H](C)[C@H](NC(=O)[C@H](CCCN=C(N)N)NC(=O)[C@@H](N)CCCCN)C(=O)N[C@@H](C)C(=O)N[C@@H](CCC(N)=O)C(=O)N[C@@H](CCCN=C(N)N)C(=O)N[C@H](C(=O)N[C@@H](CCCCN)C(=O)N[C@@H](CC(=O)O)C(=O)N[C@@H](Cc1ccccc1)C(=O)N[C@@H](CC(C)C)C(=O)N[C@@H](CCCN=C(N)N)C(=O)O)[C@@H](C)CC [KRIAQRIKDFLR],MIC,[1],10 µM
same,MIC,[9],≥ 40 µM
same,MIC,[10],20 µM
same,MIC,[8],3.24 µM
CC[C@H](C)[C@H](NC(=O)[C@H](CCCN=C(N)N)NC(=O)[C@H](CCC(N)=O)NC(=O)[C@H](CCCCN)NC(=O)[C@@H](NC(=O)[C@H](CCCN=C(N)N)NC(=O)[C@@H](N)CCCCN)[C@@H](C)CC)C(=O)N[C@@H](CCCCN)C(=O)N[C@@H](CC(=O)O)C(=O)N[C@@H](Cc1ccccc1)C(=O)N[C@@H](CC(C)C)C(=O)N[C@@H](CCCN=C(N)N)C(=O)O [KRIKQRIKDFLR],MIC,[1],5 µM
same,MIC,[9],20 µM
same,MIC,[10],20 µM
same,MIC,[8],2.5 µM
CC(C)C[C@@H]1NC(=O)CNC(=O)[C@H]([C@@H](C)O)NC(=O)[C@@H]2CCCN2C(=O)[C@H](CC(C)C)NC(=O)CNC(=O)[C@H](CC(N)=O)NC(=O)[C@H](CC(N)=O)NC(=O)[C@H](Cc2ccc(O)cc2)NC(=O)[C@H](C(C)C)NC(=O)[C@H](CCCN=C(N)N)NC(=O)[C@@H](NC(=O)[C@H](CCCN=C(N)N)NC(=O)[C@H](Cc2cnc[nH]2)NC(=O)[C@H](CCCCN)NC(=O)[C@H](CCCCN)NC(=O)[C@H](CCCN=C(N)N)NC(=O)[C@@H](N)CCCCN)CSSC[C@@H](C(N)=O)NC(=O)[C@H](Cc2c[nH]c3ccccc23)NC(=O)[C@H](CCCN=C(N)N)NC(=O)[C@H](Cc2ccc(O)cc2)NC1=O [KRKKHRCRVYNNGLPTGLYRWC],MIC,[6],1.1 µM
CC(C)C[C@H](NC(=O)CNC(=O)[C@H](C)NC(=O)[C@@H](NC(=O)[C@H](CC(N)=O)NC(=O)[C@H](CO)NC(=O)[C@H](CC(C)C)NC(=O)[C@@H](N)CC(C)C)C(C)C)C(=O)N[C@@H](CC(C)C)C(=O)N[C@@H](CCCCN)C(=O)N[C@@H](CCC(N)=O)C(=O)N[C@@H](Cc1ccccc1)C(=O)N[C@@H](C)C(=O)N[C@@H](CCCCN)C(=O)O [LLSNVAGLLKQFAK],MIC,[1],42.6 µM
same,MIC,[4],85.2 µM
same,MIC,[8],5.33 µM
same,MIC,[11],≥ 85.2 µM
CC[C@H](C)[C@H](NC(=O)[C@H](CO)NC(=O)[C@H](C)NC(=O)[C@@H](NC(=O)[C@H](CCCCN)NC(=O)[C@H](CCCCN)NC(=O)[C@H](Cc1c[nH]c2ccccc12)NC(=O)[C@@H](N)CC(N)=O)[C@@H](C)CC)C(=O)NCC(=O)N[C@@H](CCCCN)C(=O)N[C@@H](CCC(=O)O)C(=O)N[C@H](C(=O)N[C@@H](CC(C)C)C(=O)N[C@@H](CCCCN)C(=O)N[C@@H](C)C(=O)N[C@@H](CC(C)C)C(N)=O)C(C)C [NWKKIASIGKEVLKAL],MIC,Escherichia coli,21 µM
same,MIC,Bacillus subtilis,≥ 46 µM
CC[C@H](C)[C@H](NC(=O)[C@H](C)NC(=O)[C@H](CCCN=C(N)N)NC(=O)[C@H](Cc1ccc(O)cc1)NC(=O)[C@H](CC(C)C)NC(=O)[C@H](CC(N)=O)NC(=O)[C@H](Cc1ccc(O)cc1)NC(=O)CNC(=O)[C@H](C)NC(=O)[C@@H](NC(=O)[C@@H](NC(=O)[C@@H](NC(=O)[C@H](CCCN=C(N)N)NC(=O)[C@@H](NC(=O)[C@@H](NC(=O)[C@@H](NC(=O)[C@@H]1CCCN1C(=O)[C@H](Cc1c[nH]c2ccccc12)NC(=O)[C@H](Cc1ccccc1)NC(=O)[C@H](CCCN=C(N)N)NC(=O)[C@H](CCCCN)NC(=O)[C@@H](NC(=O)[C@@H](N)CCCN=C(N)N)[C@@H](C)CC)C(C)C)C(C)C)[C@@H](C)CC)[C@@H](C)O)C(C)C)C(C)C)C(=O)N[C@@H](CCCCN)C(=O)N[C@@H](CCCCN)C(=O)O [RIKRFWPVVIRTVVAGYNLYRAIKK],MIC,[4],3.08 µM
same,MIC,[8],1.15 µM
same,MIC,Bacillus subtilis,1.54 µM
same,MIC,[7],0.769 µM
CC[C@H](C)[C@H](NC(=O)[C@@H](NC(=O)[C@@H](NC(=O)[C@@H]1CCCN1C(=O)[C@H](Cc1c[nH]c2ccccc12)NC(=O)[C@H](Cc1ccccc1)NC(=O)[C@H](CCCN=C(N)N)NC(=O)[C@H](CCCCN)NC(=O)[C@@H](NC(=O)[C@@H](N)CCCN=C(N)N)[C@@H](C)CC)C(C)C)C(C)C)C(=O)N[C@@H](CCCN=C(N)N)C(=O)N[C@H](C(=O)N[C@H](C(=O)N[C@H](C(=O)N[C@@H](C)C(=O)NCC(=O)N[C@@H](Cc1ccc(O)cc1)C(=O)N[C@@H](CC(N)=O)C(=O)N[C@@H](CC(C)C)C(=O)N[C@@H](Cc1ccc(O)cc1)C(=O)O)C(C)C)C(C)C)[C@@H](C)O [RIKRFWPVVIRTVVAGYNLY],MIC,[8],61.2 µM
same,MIC,[7],≥ 45.9 µM
CC(C)C[C@H](NC(=O)[C@H](C)NC(=O)[C@H](Cc1c[nH]c2ccccc12)NC(=O)CNC(=O)[C@H](CCCN=C(N)N)NC(=O)[C@@H](N)CCCN=C(N)N)C(=O)N[C@@H](CCCN=C(N)N)C(=O)N[C@@H](CC(C)C)C(=O)N[C@H](C(=O)N[C@@H](CC(C)C)C(=O)N[C@@H](C)C(=O)N[C@@H](Cc1ccc(O)cc1)C(N)=O)C(C)C [RRGWALRLVLAY],MIC,[2],26 µM and 30 µM
